Measured values published in ChEMBL document CHEMBL1667808, “Substituted imidazole derivatives as novel cardiovascular agents” (Bioorg Med Chem Lett, 2011).
The source made the active and inactive calls. No cut-off for these calls is given here.

Tests used:
[1] = system: Felis catus; assay: Hypotensive activity in cat assessed as decrease carotid occlusion response at 2.5 mg/kg; assay type: functional, organism-based; design: dose 2.5 mg/kg
[2] = system: Felis catus; assay: Antihypertensive activity in cat assessed as change in blood pressure at 2.5 mg/kg measured within 5 mins; assay type: functional
[3] = system: Felis catus; assay: Antihypertensive activity in cat assessed as change in blood pressure at 2.5 mg/kg measured after 5 mins; assay type: functional
[4] = system: Felis catus; assay: Hypotensive activity in cat assessed as decrease norepinephrine response at 2.5 mg/kg; assay type: functional, organism-based; design: dose 2.5 mg/kg
[5] = system: Felis catus; assay: Antihypertensive activity in cat assessed as change in heart rate at 2.5 mg/kg measured within 5 mins; assay type: functional
[6] = system: Felis catus; assay: Antihypertensive activity in cat assessed as change in heart rate at 2.5 mg/kg measured after 5 mins; assay type: functional

## COc1ccc(-c2nnc(Cn3c(-c4ccccc4)nc(-c4ccccc4)c3-c3ccccc3)o2)cc1
[1]
  Activity: Active
[2]
  Activity: -50 mmHg
[3]
  Activity: -10 mmHg
[4]
  Activity: inactive

## COc1ccc(/C=N/NC(=O)Cn2c(-c3ccc(OC)cc3)nc(-c3ccccc3)c2-c2ccccc2)cc1
[1]
  Activity: Active
[2]
  Activity: -5 mmHg
[3]
  Activity: -5 mmHg
[4]
  Activity: inactive

## COc1ccc(-c2nc(-c3ccccc3)c(-c3ccccc3)n2CC(=O)NN)cc1
[5]
  Activity: -16 bpm
[1]
  Activity: inactive
[6]
  Activity: -21 bpm
[2]
  Activity: -20 mmHg
[3]
  Activity: -5 mmHg
[4]
  Activity: inactive

## COc1ccc(/C=N/NC(=O)Cn2c(-c3ccccc3)nc(-c3ccccc3)c2-c2ccccc2)cc1
[5]
  Activity: -8 bpm
[1]
  Activity: inactive
[6]
  Activity: -11 bpm
[2]
  Activity: -15 mmHg
[4]
  Activity: inactive

## CN(C)c1ccc(/C=N/NC(=O)Cn2c(-c3ccccc3O)nc(-c3ccccc3)c2-c2ccccc2)cc1
[5]
  Activity: -8 bpm
[1]
  Activity: Active
[6]
  Activity: -11 bpm
[2]
  Activity: -60 mmHg
[3]
  Activity: -35 mmHg
[4]
  Activity: inactive

## COc1ccc(-c2nnc(Cn3c(-c4ccc(OC)cc4)nc(-c4ccccc4)c3-c3ccccc3)o2)cc1
[1]
  Activity: Active
[2]
  Activity: -10 mmHg
[3]
  Activity: 10 mmHg
[4]
  Activity: Active

## CN(C)c1ccc(-c2nc(-c3ccccc3)c(-c3ccccc3)n2CC(=O)NN)cc1
[5]
  Activity: -18 bpm
[1]
  Activity: Active
[6]
  Activity: -27 bpm
[2]
  Activity: -30 mmHg
[3]
  Activity: -30 mmHg
[4]
  Activity: inactive

## COc1ccc(/C=N/NC(=O)Cn2c(-c3ccc(O)c(OC)c3)nc(-c3ccccc3)c2-c2ccccc2)cc1
[1]
  Activity: Active
[2]
  Activity: -10 mmHg
[4]
  Activity: inactive

## COc1cc(/C=N/NC(=O)Cn2c(-c3ccc(N(C)C)cc3)nc(-c3ccccc3)c2-c2ccccc2)ccc1O
[5]
  Activity: -14 bpm
[1]
  Activity: Active
[6]
  Activity: -20 bpm
[2]
  Activity: -80 mmHg
[3]
  Activity: -55 mmHg
[4]
  Activity: inactive

## COc1ccc(-c2nnc(Cn3c(-c4ccc(O)c(OC)c4)nc(-c4ccccc4)c3-c3ccccc3)o2)cc1
[1]
  Activity: Active
[2]
  Activity: -10 mmHg
[3]
  Activity: -10 mmHg
[4]
  Activity: inactive

## COc1ccc(-c2nnc(Cn3c(-c4ccc(N(C)C)cc4)nc(-c4ccccc4)c3-c3ccccc3)o2)cc1
[5]
  Activity: -6 bpm
[1]
  Activity: Active
[6]
  Activity: -10 bpm
[2]
  Activity: -15 mmHg
[3]
  Activity: -10 mmHg
[4]
  Activity: Active

## COc1cc(-c2nc(-c3ccccc3)c(-c3ccccc3)n2CC(=O)NN)ccc1O
[1]
  Activity: Active
[6]
  Activity: inactive
[2]
  Activity: -30 mmHg
[3]
  Activity: -20 mmHg
[4]
  Activity: inactive

## NNC(=O)Cn1c(-c2ccccc2O)nc(-c2ccccc2)c1-c1ccccc1
[5]
  Activity: -21 bpm
[1]
  Activity: inactive
[6]
  Activity: inactive
[2]
  Activity: -22 mmHg
[3]
  Activity: -17 mmHg
[4]
  Activity: inactive

## NNC(=O)Cn1c(-c2ccccc2)nc(-c2ccccc2)c1-c1ccccc1
[5]
  Activity: -6 bpm
[1]
  Activity: inactive
[6]
  Activity: -6 bpm
[2]
  Activity: -25 mmHg
[3]
  Activity: -15 mmHg
[4]
  Activity: inactive

## COc1ccc(/C=N/NC(=O)Cn2c(-c3ccc(N(C)C)cc3)nc(-c3ccccc3)c2-c2ccccc2)cc1
[5]
  Activity: -12 bpm
[1]
  Activity: Active
[6]
  Activity: -14 bpm
[2]
  Activity: -45 mmHg
[3]
  Activity: -50 mmHg
[4]
  Activity: inactive

## CN(C)c1ccc(-c2nnc(Cn3c(-c4ccccc4O)nc(-c4ccccc4)c3-c3ccccc3)o2)cc1
[5]
  Activity: -5 bpm
[1]
  Activity: inactive
[6]
  Activity: -5 bpm
[2]
  Activity: -15 mmHg
[3]
  Activity: 5 mmHg
[4]
  Activity: inactive

## COc1cc(-c2nnc(Cn3c(-c4ccc(N(C)C)cc4)nc(-c4ccccc4)c3-c3ccccc3)o2)ccc1O
[5]
  Activity: -6 bpm
[1]
  Activity: Active
[6]
  Activity: -14 bpm
[2]
  Activity: -50 mmHg
[3]
  Activity: -20 mmHg
[4]
  Activity: inactive
